Data reported in PMC4199533, “Toxicological and biochemical characterizations of AChE in phosalone-susceptible and resistant populations of the common pistachio psyllid, Agonoscena pistaciae” (Journal of Insect Science, 2014).
Read-outs that look alike come from different tables or passages of the source.

What was measured:
[1] = tested on: T1, AChE (Bam population, susceptible); assay: Ellman microplate kinetics, Michaelis-Menten fit; format: biochemical, Agonoscena pistaciae; settings: DTNB; pH 7.0; 37°C; 405 nm; apparent, total AChE
T1 construct: gene AChE1
Excerpt: Ellman microplate kinetics, Michaelis-Menten fit on AChE (Bam population, susceptible)

[2] = tested on: T1, AChE (Bam population, susceptible); assay: Ellman microplate inhibition assay; format: biochemical, Agonoscena pistaciae; settings: pH 7.0; 10 min preincubation at room temperature; thiocholine substrate and DTNB; covalent; read-out: I50
Excerpt: Ellman microplate inhibition assay on AChE (Bam population, susceptible)

[3] = tested on: T2, AChE (Rafsanjan population, resistant; modified AChE); settings: read-out: I50, pH 7.0, 10 min preincubation at room temperature, thiocholine substrate and DTNB, covalent
T2 construct: gene AChE1
Excerpt: Ellman microplate inhibition assay on AChE (Rafsanjan population, resistant; modified AChE)

[4] = tested on: T2, AChE (Rafsanjan population, resistant; modified AChE); settings: DTNB; pH 7.0; 37°C; 405 nm; apparent, total AChE
Excerpt: Ellman microplate kinetics, Michaelis-Menten fit on AChE (Rafsanjan population, resistant; modified AChE)

| Structure (SMILES) | Km [1] [µM] | IC50 [2] [µM] | IC50 [3] [µM] | Km [4] [µM] | IC50 ([3]; stated gain) [µM] |
| --- | --- | --- | --- | --- | --- |
| CC(=O)SCC[N+](C)(C)C [ATC, acetylthiocholine iodide] | 1.25 ± 0.05 | – | – | – | – |
| CCCC(=O)SCC[N+](C)(C)C [BTC, butyrylthiocholine iodide] | 4.3 ± 0.14 | – | – | – | – |
| CNC(=O)Oc1cccc(C)c1 [MTMC, m-tolyl methyl carbamate] | – | 20430 ± 170 | 9450 ± 30 | – | – |
| CCC(=O)SCC[N+](C)(C)C [PTC, propionylthiocholine iodide] | 1.4 ± 0.11 | – | – | 4.1 ± 0.06 | – |
| CNC(=O)O/N=C/C(C)(C)SC [aldicarb] | – | 2590 ± 20 | 2850 ± 60 | – | – |
| CNC(=O)Oc1cccc2ccccc12 [carbaryl] | – | 2360 ± 20 | 2050 ± 30 | – | – |
| CNC(=O)Oc1cccc2c1OC(C)(C)C2 [carbofuran] | – | 380 ± 10 | 160 ± 10 | – | – |
| CNC(=O)/C=C(\C)OP(=O)(OC)OC [monocrotophos] | – | 230 ± 10 | – | – | 5280 ± 40 |
| CCN(CC)C(=O)C(Cl)=C(C)OP(=O)(OC)OC [phosphamidon] | – | 220 ± 10 | – | – | 4790 ± 20 |
| CNC(=O)Oc1ccccc1OC(C)C [propoxur] | – | 1060 ± 30 | 830 ± 10 | – | – |
